Reference: patent publication US20050020615A1, “CCI-779 lyophilized formulations” (Wyeth, priority 2003, published 2005)

What was measured:
[1] = test system: human tumor xenografts of diverse histological types; conditions: nude mice; cited from earlier work
orthotopic glioma = conditions: nude mice; cited from earlier work
[2] = Chemical stability of CCI-779 in solution (pH, chelating agent); assay type: physicochemical; conditions: citric acid at less than 0.01% w/v
Source text: Desirably, when a significant amount of water (e.g,. 40% v/v or greater) is present in the solvent blend of the pre-lyophilized solution, it is advantageous to adjust the pH to 4 to 6 as this is the range of maximum stability for CCI-779. In one embodiment, the pH is adjusted to a pH of about 5.5.
In some embodiments, components with chelating activity are included in the formulations of the invention as the sole “antioxidant component”. Typically, such metal-binding components, when acting as chelating agents are used in the lower end of the range of concentrations for the antioxidant component provided herein. […] Additionally, such chelating agents may be used in combination with other antioxidants as part of the antioxidant component of the invention. For example, an acceptable formulation may contain both citric acid and d,l-α-tocopherol. Optimal concentrations for the selected antioxidant(s) can be readily determined by one of skill in the art, based upon the information provided herein. All percentages are expressed a % w/v in the pre-lyophilized solution.
Desirably, the pre-lyophilization solution has a pH in the range of 4 to 6, which has been found by the inventor to improve the stability of CCI-779. Depending upon the components of the pre-lyophilization solution, the pH can be adjusted using any suitable inorganic or organic acid, or base, as needed. […]

Solubility in water = assay type: physicochemical
[3] = test system: histologically diverse tumor cells; conditions: in vitro; cited from earlier work
[4] = test system: human glioblastoma cell line; conditions: in vitro, platelet-derived growth factor; cited from earlier work

Question: Which results are given for `CO[C@H]1C[C@@H]2CC[C@@H](C)[C@@](O)(O2)C(=O)C(=O)N2CCCC[C@H]2C(=O)O[C@H]([C@H](C)C[C@@H]2CC[C@@H](OC(=O)C(C)(CO)CO)[C@H](OC)C2)CC(=O)[C@H](C)/C=C(\C)[C@@H](O)[C@@H](OC)C(=O)[C@H](C)C[C@H](C)/C=C/C=C/C=C/1C` [CCI-779, rapamycin 42-ester with 3-hydroxy-2-(hydroxymethyl)-2-methylpropionic acid]?
Answer: activity against xenografts [1]: has activity; activity in orthotopic glioma model (orthotopic glioma): active; effect of citric acid on stability of CCI-779 [2]: enhanced the stability; solubility in water (Solubility in water): poor solubility in water; growth of tumor cells [3]: inhibit the growth; growth factor-induced stimulation of cells [4]: markedly suppressed
